As a reminder, the Ki is the dissociation constant of the complex between target and ligand, obtained from inhibition or displacement. A low value points to a stronger hold on the target.

This test concerns the target T1, Neutrophil elastase (Homo sapiens, UniProt P08246).
T1 sequence (P08246 whole entry): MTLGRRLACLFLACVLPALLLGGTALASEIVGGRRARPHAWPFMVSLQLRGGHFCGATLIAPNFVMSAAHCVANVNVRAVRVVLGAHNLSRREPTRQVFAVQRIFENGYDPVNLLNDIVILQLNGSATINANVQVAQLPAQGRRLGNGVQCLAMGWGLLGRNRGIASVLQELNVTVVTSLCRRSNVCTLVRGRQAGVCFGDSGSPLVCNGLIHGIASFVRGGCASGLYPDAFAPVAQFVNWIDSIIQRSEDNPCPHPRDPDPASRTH
In words: Tested for inhibitory activity against human leukocyte elastase(HLE) enzyme.

`CC(C)C(NC(=O)Cn1c(-c2cccnc2)ccc(NC(=O)OCc2ccccc2)c1=O)C(=O)C(F)(F)F` (stereo not drawn) yielded a Ki of 9.1 nM.

`CC(C)C(NC(=O)Cn1c(-c2ccccc2Cl)ccc(NC(=O)OCc2ccccc2)c1=O)C(=O)C(F)(F)F` (stereo not drawn) registered a Ki of 11 nM.

As to `CC(C)C(NC(=O)Cn1c(-c2cccc(OC(C)(C)C)c2)ccc(NC(=O)OCc2ccccc2)c1=O)C(=O)C(F)(F)F` (stereo not drawn), the affinity, expressed as Ki, was 4.4 nM.

`CC(C)C(NC(=O)Cn1c(-c2ccc(Cl)cc2)ccc(NC(=O)OCc2ccccc2)c1=O)C(=O)C(F)(F)F` (stereo not drawn): the affinity, expressed as Ki, was 6.6 nM.

In turn, `CC(C)C(NC(=O)Cn1ccc(-c2ccccc2)c(NC(=O)OCc2ccccc2)c1=O)C(=O)C(F)(F)F` (stereo not drawn) returned a Ki of 320 nM.

In turn, `CC(C)C(NC(=O)Cn1c(Cc2ccccc2)ccc(NC(=O)OCc2ccccc2)c1=O)C(=O)C(F)(F)F` (stereo not drawn) returned a Ki of 66 nM.

Compound `Cc1ccc(-c2ccc(NC(=O)OCc3ccccc3)c(=O)n2CC(=O)NC(C(=O)C(F)(F)F)C(C)C)cc1` (stereo not drawn) had a Ki of 31 nM.

Compound `CC(C)C(NC(=O)Cn1c(-c2cccc(C(=O)O)c2)ccc(NC(=O)OCc2ccccc2)c1=O)C(=O)C(F)(F)F` (stereo not drawn) yielded a Ki of 32 nM.
